# Results taken from patent US4666929A, “Anthranilic acid ester derivatives and antiinflammatory and analgetic external preparations containing the same” (Shiseido Company Ltd., priority 1985, dated 1987).
# Columns and labels:
# [1] = in vivo; conditions: mouse, oral, ddY male mice, 7 days of observation
# Protocol: The evaluation test was carried out using ddY male mice (i.e., body weight =18 to 22 g, 10 mice in each group).
# The sample compound listed in Table 2 was dispersed in 0.5% carboxymethyl cellulose/physiological saline solution and orally administered in a given amount by a peroral syringe. After the administration, the toxic conditions were observed and the oral acute toxicity (LD50) was calculated from the death number during 7 days of observation according to a Litchfield Wilcoxon method.
# [2] = in vivo; conditions: mouse, in vivo; oral, ICR female mice
# Protocol: (§1) The evaluation test was carried out using ICR female mice (i.e., body weight=18 to 22 g, 10 mice in each group).
# (§2) The sample compounds listed in Table 3 were dispersed in 2.0% carboxymethyl cellulose/physiological saline solution and orally administered in a given amount by a peroral syringe. After the administration, the toxic conditions were observed and the oral acute toxicity (LD50) was calculated from the death number according to a Van Der Werden method.
# [3] = test system: ICR female mice; assay: in vivo
# Protocol: as §1, §2
# [4] = test system: carrageenan foot pad edema; assay: Evaluation Test Example 4 (Antiinflammatory Activity), rat/carrageenan foot pad edema method; assay type: in vivo; conditions: oral, 100 mg/kg; for Prevention % (carrageenan edema): 5 hours after λ-carrageenan injection
# Protocol: (§3) The antiinflammatory effects of the present compounds were determined according to the so-called rat/carrageenan foot pad edema method. This method is admitted as a standard test method for determining antiinflammatory effects, because this method has a high correlationship with human antiinflammatory effects.
# (§4) The evaluation test was carried out using Wister male rats (i.e., body weight =110-130 g, 8 rats in each group) according to a Winter et al method set forth in "Proceedings of the Society for Experimental Biology & Medicine, 111, p 554, 1962).
# (§5) The sample compounds listed in Table 4 were dispersed in a 0.5% aqueous carboxymethyl cellulose solution and orally administered in a dosage of 100 mg/kg. One hour after the administration, 0.1 ml of a 1% λ-carrageenan/physiological saline was subcutaneously applied to the foot pad of one paw of the rat as an inflammatory inducing substance. Thus, the edema was caused. The volumes of the foot pad were measured in the predetermined constant time period before and after the administration and the increase (V1) in the volume was calculated. On the other hand, the increase (V0) in the volume of the foot pad of the control rats, to which the aqueous 0.5% carboxymethyl cellulose solution containing no test sample compounds, was determined by injecting the λ-carageenan. Thus, the inhibition (%) of the carageenan edema was calculated as follows: [formula] The antiinflammatory activity is high when this value is large.
# The evaluation test of 2-furanmethyl-N-(2,3-xylyl) anthranilate was carried out in the same manner as in Evaluation Test Example 3.
# [5] = test system: UV induced erythema; assay: Evaluation Test Example 6 (Antiinflammatory Activity), ultraviolet erythema method; assay type: in vivo, guinea pig; conditions: topical; for Prevention % (UV induced erythema): 25 μg/cm^2, 3 hours after UV irradiation
# Protocol: (§6) Healthy Hartley strain albino guinea pigs (i.e., body weight=450-500 g, 10 pigs in each group) were used as the test animals. The back skin of the guinea pigs was clipped and shaved, and sections having a size of 1.41 cm×1.41 cm were prepared in the back skin, by using a rubber plate, symmetrically spaced from the back center line. The divided sections were irradiated with ultraviolet ray having a medium wavelength (i.e., 280-320 nm, λmax =305 nm) to induce erythema. After the UV irradiation, 10 μl of a solution of the test sample compound in olive oil was applied to the sections on one side. The formation of the erythema was observed over a period of time. The average erythema (E1) in the section to which the sample compound was applied and the average erythema (E0) in the section to which no sample compounds were applied were measured. […] [formula] When the inhibitory value (%) is large, the antiinflammatory activity of the sample compound is high.
# The anti-inflammatory activity test of 2-furanmethyl-N-(2,3-xylyl)anthranilate was carried out in the same manner as in Evaluation Test Example 5.
# [6] = test system: pain induced by the brewer's yeast; assay: Evaluation Test Example 7 (Analgetic Activity), Randall-Selitto method; assay type: in vivo, rat; conditions: topical, 2.5 mg/paw, 5 hours after injection of brewer's yeast
# Protocol: This method is admitted as a standard method for evaluating non-anesthetic analgesic agent.
# The test sample compounds were applied to the both foot pad of hind paws of the rats each in an application amount of 50 μl as a 2.5% ethanol solution. After one hour, 50 μl each of the ethanol solution of the sample compound was again applied and 0.1 ml of a 5% brewer's yeast/physiological saline was immediately subcutaneously applied to one foot pad of the rat as a pain inducing substance. After a predetermined time period, the weight of the pain generation was measured using a horizontal balance type presser and the decrease rate (P1) of the pain threshold value was determined. The above-mentioned evaluation test procedure was also carried out in the control rat group, except that the solvent containing no sample compounds was applied. Thus, the decrease rate (P0) of the pain threshold value in the control group was determined. The inhibition (%) of the pain induced by the brewer's yeast was calculated as follows: [formula] When this value is large, the analgetic activity is high.
# [7] = test system: carrageenan foot pad edema; assay: Evaluation Test Example 3 (Antiinflammatory Activity), rat/carrageenan foot pad edema method; assay type: in vivo; conditions: oral, 100 mg/kg, 5 hours after λ-carrageenan injection
# Protocol: as §3, §4, §5
# [8] = test system: UV induced erythema; assay: Evaluation Test Example 5 (Antiinflammatory Activity), ultraviolet erythema method; assay type: in vivo, guinea pig; conditions: topical, 25 μg/cm^2, 3 hours after UV irradiation
# Protocol: The evaluation test of N-(2,3-xylyl) anthranilic acid derivatives was carried out according to the so-called ultraviolet erythema method.
# as §6
# [9] = background art; cited from earlier work
# [10] = oral administration, background art; cited from earlier work
structure (smiles),measurement,setting,value
Cc1cccc(Nc2ccccc2C(=O)OCc2cccnc2)c1C [drawing 5],LD50 at 168 h,[1],3820 mg/kg
Cc1cccc(Nc2ccccc2C(=O)OCc2ccncc2)c1C [drawing 6],LD50 at 168 h,[1],4850 mg/kg
"Cc1cccc(Nc2ccccc2C(=O)OCc2ccco2)c1C [2-furanmethyl-N-(2,3-xylyl)anthranilate]",LD50,[2],5480 mg/kg
same,"LD50 relative to known N-(2,3-xylyl)anthranilic acid",[3]; oral,about 4 times higher
same,toxicity,"[3]; oral acute toxicity, in words",very low
same,Prevention % (carrageenan edema),[4],50.7%
same,"edema inhibitory activity versus N-(2,3-xylyl)anthranilic acid",[4]; in words,"as strong as for the known N-(2,3-xylyl)anthranilic acid"
same,Prevention % (UV induced erythema),[5],54.3%
same,"erythema [inhibition] versus N-(2,3-xylyl)anthranilic acid","[5]; 25 μg/cm^2, in words","stronger than that of the known N-(2,3-xylyl)anthranilic acid"
same,Inhibition % (pain induced by brewer's yeast),[6],56.5%
Cc1cccc(Nc2ccccc2C(=O)OCc2ccccn2)c1C [drawing 9],Inhibition % (carrageenan edema),[7],61.3%
Cc1cccc(Nc2ccccc2C(=O)OCc2ccncc2)c1C [drawing 14],Inhibition % (UV induced erythema),[8],43.1%
Cc1cccc(Nc2ccccc2C(=O)OCCCc2cccnc2)c1C [drawing 16],Inhibition % (UV induced erythema),[8],33.2%
"Cc1cccc(Nc2ccccc2C(=O)O)c1C [N-(2,3-xylyl)anthranilic acid, reference compound]",Inhibition % (carrageenan edema),[7],56.8%
same,Prevention % (carrageenan edema),[4],46.8%
same,Inhibition % (UV induced erythema),[8],32.8%
same,Prevention % (UV induced erythema),[5],35.4%
same,Inhibition % (pain induced by brewer's yeast),[6],32.8%
same,"solubility in water, an alcohol, or an oil",[9],very difficult to dissolve
same,side effects,[10],"various side effects including enterogasteric disorders, renal disorders, and vertigo occur"
"Cc1cccc(Nc2ccccc2C(=O)OCc2cccnc2)c1C [3-pyridylmethyl-N-(2,3-xylyl)anthranilate]",Inhibition % (pain induced by brewer's yeast),[6],48.3%
Cc1cccc(Nc2ccccc2C(=O)OCCc2ccccn2)c1C [drawing 15],Inhibition % (UV induced erythema),[8],35.4%
"CC(C)Cc1ccc(C(C)C(=O)OCc2ccccn2)cc1 (centres unmarked) [2-(p-isobutylphenyl)propionic acid-2-pyridylmethyl ester, reference compound]",Inhibition % (pain induced by brewer's yeast),[6],39.2%
Cc1cccc(Nc2ccccc2C(=O)OCc2ccccn2)c1C [drawing 4],LD50 at 168 h,[1],4420 mg/kg
"Cc1cccc(Nc2ccccc2C(=O)OCc2ccccn2)c1C [2-pyridylmethyl-N-(2,3-xylyl)anthranilate]",Inhibition % (pain induced by brewer's yeast),[6],53.6%
Cc1cccc(Nc2ccccc2C(=O)OCc2cccnc2)c1C [drawing 10],Inhibition % (carrageenan edema),[7],55.2%
Cc1cccc(Nc2ccccc2C(=O)OCc2ccncc2)c1C [drawing 11],Inhibition % (carrageenan edema),[7],53.5%
Cc1cccc(Nc2ccccc2C(=O)OCc2ccccn2)c1C [drawing 12],Inhibition % (UV induced erythema),[8],47.6%
"Cc1cccc(Nc2ccccc2C(=O)OCCc2ccccn2)c1C [2-(2-pyridyl)ethyl-N-(2,3-xylyl)anthranilate]",Inhibition % (pain induced by brewer's yeast),[6],45.5%
Cc1cccc(Nc2ccccc2C(=O)OCCc2ccccn2)c1C [drawing 7],LD50 at 168 h,[1],4100 mg/kg
Cc1cccc(Nc2ccccc2C(=O)OCCCc2cccnc2)c1C [drawing 8],LD50 at 168 h,[1],3750 mg/kg
Cc1cccc(Nc2ccccc2C(=O)OCc2cccnc2)c1C [drawing 13],Inhibition % (UV induced erythema),[8],51.3%
